In patent publication US20260022142A1, “MACROCYCLIC IMMUNOMODULATORS” (Bristol-Myers Squibb Company, priority 2022, published 2026):
Bridge positions count the residues as written; N and C are the ends. Square brackets hold non-standard residues; d marks the D form. Peptide text beside a SMILES is read from it. * marks the point of attachment. Bip = N[C@@H](Cc1ccc(-c2ccccc2)cc1)C(=O)O; Phe(3-Me) = Cc1cccc(C[C@H](N)C(=O)O)c1; 3Pal = N[C@@H](Cc1cccnc1)C(=O)O; 4Pal = N[C@@H](Cc1ccncc1)C(=O)O; Cha = N[C@@H](CC1CCCCC1)C(=O)O; dCha = N[C@H](CC1CCCCC1)C(=O)O; Carboxymethyl = O=C(O)C*; Orn = NCCC[C@H](N)C(=O)O; Aun = NCCCCCCCCCCC(=O)O; Dab = NCC[C@H](N)C(=O)O; Dap = NC[C@H](N)C(=O)O; AEEA = NCCOCCOCC(=O)O

Target: T1, PD-1/PD-L1 interaction (PE-labeled human PD-L1-Ig binding to Jurkat cell line over-expressing human PD-1) (Homo sapiens, UniProt Q15116)
T1 construct: expressed in transfected cells; host or cells: Jurkat
Assay: Jurkat-PD-1 Cell Binding High-Content Screening Assay (CBA)
Format: cell-based
Settings: Jurkat cell line over-expressing human PD-1; PE-labeled PD-L1-Ig 20 nM final; read-out: Jurkat hPD1-PDL1 IC50
Method in brief: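 First, compound is added to PD-1-expressing Jurkat cells in serum-containing DMEM and left 2 h at 37° C. Next, PE-conjugated PD-L1-Ig is introduced at 20 nM final concentration for 1 hour. Finally, cells are fixed in 4% paraformaldehyde with Hoechst 33342, washed and imaged.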

T1 sequence (Q15116 25-288): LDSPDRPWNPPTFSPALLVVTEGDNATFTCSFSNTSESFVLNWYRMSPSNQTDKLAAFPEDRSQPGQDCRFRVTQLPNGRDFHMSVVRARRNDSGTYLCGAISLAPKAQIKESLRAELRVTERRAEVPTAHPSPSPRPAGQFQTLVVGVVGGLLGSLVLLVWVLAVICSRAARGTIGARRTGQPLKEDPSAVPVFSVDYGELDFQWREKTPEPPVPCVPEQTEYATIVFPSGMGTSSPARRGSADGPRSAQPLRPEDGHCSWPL

Structure (SMILES) | IC50
Cc1cccc(C[C@@H]2NC(=O)[C@H](CC(=O)O)NC(=O)[C@H](Cc3ccc(OCC(=O)O)cc3)NC(=O)[C@H](CN)NC(=O)CSC[C@@H](C(=O)N[C@@H](CCCCN)C(=O)NCCCCCCCCCCC(=O)O)NC(=O)[C@H](CCCN)NC(=O)[C@H](C(C)C)NC(=O)[C@H](CC3CCCCC3)NC(=O)[C@H](CCN)NC(=O)[C@@H](CC3CCCCC3)NC(=O)[C@H](CCCN)NC(=O)[C@H](C(C)C)NC(=O)[C@H](Cc3ccc(-c4ccccc4)cc3)NC(=O)[C@H](C(C)C)NC2=O)c1 [Compound 2688] ({CH2CO}-[Dap]Y(Carboxymethyl)D[Phe(3-Me)]V[Bip]V[Orn][dCha][Dab][Cha]V[Orn]CK[Aun]-OH; thioether N-14) | 15.6 nM
Cc1cccc(C[C@@H]2NC(=O)[C@H](CC(=O)O)NC(=O)[C@H](Cc3ccc(OCC(=O)O)cc3)NC(=O)[C@H](CN)NC(=O)CSC[C@@H](C(=O)NCCOCCOCC(=O)NCCCCCCCCCCC(=O)O)NC(=O)[C@H](CCCN)NC(=O)[C@H](C(C)C)NC(=O)[C@H](CC3CCCCC3)NC(=O)[C@H](CCN)NC(=O)[C@@H](CC(C)C)NC(=O)[C@H](CCCN)NC(=O)[C@H](Cc3ccc(O)cc3)NC(=O)[C@H](Cc3ccc(-c4ccccc4)cc3)NC(=O)[C@H](Cc3ccc(O)cc3)NC2=O)c1 [Compound 2691] ({CH2CO}-[Dap]Y(Carboxymethyl)D[Phe(3-Me)]Y[Bip]Y[Orn][dL][Dab][Cha]V[Orn]C[AEEA][Aun]-OH; thioether N-14) | 15 nM
Cc1cccc(C[C@@H]2NC(=O)[C@H](CC(=O)O)NC(=O)[C@H](Cc3ccc(OCC(=O)O)cc3)NC(=O)[C@H](CN)NC(=O)CSC[C@@H](C(=O)NCCOCCOCC(=O)NCCCCCCCCCCC(=O)O)NC(=O)[C@H](CCCN)NC(=O)[C@H](C(C)C)NC(=O)[C@H](CC3CCCCC3)NC(=O)[C@H](CCN)NC(=O)[C@@H](CC(C)C)NC(=O)[C@H](CCCN)NC(=O)[C@H](Cc3ccc(O)cc3)NC(=O)[C@H](Cc3ccc(-c4ccccc4)cc3)NC(=O)[C@H](C(C)C)NC2=O)c1 [Compound 2692] ({CH2CO}-[Dap]Y(Carboxymethyl)D[Phe(3-Me)]V[Bip]Y[Orn][dL][Dab][Cha]V[Orn]C[AEEA][Aun]-OH; thioether N-14) | 6.3 nM
Cc1cccc(C[C@@H]2NC(=O)[C@H](CC(=O)O)NC(=O)[C@H](Cc3ccc(OCC(=O)O)cc3)NC(=O)[C@H](CN)NC(=O)CSC[C@@H](C(=O)NCCCCCCCCCCC(=O)O)NC(=O)[C@H](CCCN)NC(=O)[C@H](C(C)C)NC(=O)[C@H](CC3CCCCC3)NC(=O)[C@H](CCN)NC(=O)[C@@H](CC(C)C)NC(=O)[C@H](CCCN)NC(=O)[C@H](Cc3ccc(O)cc3)NC(=O)[C@H](Cc3ccc(-c4ccccc4)cc3)NC(=O)[C@H](Cc3ccc(O)cc3)NC2=O)c1 [Compound 2693] ({CH2CO}-[Dap]Y(Carboxymethyl)D[Phe(3-Me)]Y[Bip]Y[Orn][dL][Dab][Cha]V[Orn]C[Aun]-OH; thioether N-14) | 13 nM
Cc1cccc(C[C@@H]2NC(=O)[C@H](CC(=O)O)NC(=O)[C@H](Cc3ccc(OCC(=O)O)cc3)NC(=O)[C@H](CN)NC(=O)CSC[C@@H](C(=O)NCCCCCCCCCCC(=O)O)NC(=O)[C@H](CCCN)NC(=O)[C@H](C(C)C)NC(=O)[C@H](CC3CCCCC3)NC(=O)[C@H](CCN)NC(=O)[C@@H](CC(C)C)NC(=O)[C@H](CCCN)NC(=O)[C@H](Cc3ccc(O)cc3)NC(=O)[C@H](Cc3ccc(-c4ccccc4)cc3)NC(=O)[C@H](C(C)C)NC2=O)c1 [Compound 2694] ({CH2CO}-[Dap]Y(Carboxymethyl)D[Phe(3-Me)]V[Bip]Y[Orn][dL][Dab][Cha]V[Orn]C[Aun]-OH; thioether N-14) | 9.9 nM
Cc1cccc(C[C@@H]2NC(=O)[C@H](CC(=O)O)NC(=O)[C@H](Cc3ccc(O)cc3)NC(=O)[C@H](CC(N)=O)NC(=O)CSC[C@@H](C(=O)N[C@@H](CCN)C(=O)NCCOCCOCC(=O)NCCCCCCCCCCC(=O)O)NC(=O)[C@H](CCCN)NC(=O)[C@H](C(C)C)NC(=O)[C@H](CC3CCCCC3)NC(=O)[C@H](CCN)NC(=O)[C@@H](CC(C)C)NC(=O)[C@H](CCCN)NC(=O)[C@H](Cc3ccc(O)cc3)NC(=O)[C@H](Cc3ccc(-c4ccccc4)cc3)NC(=O)[C@H](C(C)C)NC2=O)c1 [Compound 2695] ({CH2CO}-NYD[Phe(3-Me)]V[Bip]Y[Orn][dL][Dab][Cha]V[Orn]C[Dab][AEEA][Aun]-OH; thioether N-14) | 5.1 nM
Cc1cccc(C[C@@H]2NC(=O)[C@H](CC(=O)O)NC(=O)[C@H](Cc3ccc(O)cc3)NC(=O)[C@H](CC(N)=O)NC(=O)CSC[C@@H](C(=O)N[C@@H](CCN)C(=O)NCCCCCCCCCCC(=O)O)NC(=O)[C@H](CCCN)NC(=O)[C@H](C(C)C)NC(=O)[C@H](CC3CCCCC3)NC(=O)[C@H](CCN)NC(=O)[C@@H](CC(C)C)NC(=O)[C@H](CCCN)NC(=O)[C@H](Cc3ccc(O)cc3)NC(=O)[C@H](Cc3ccc(-c4ccccc4)cc3)NC(=O)[C@H](C(C)C)NC2=O)c1 [Compound 2696] ({CH2CO}-NYD[Phe(3-Me)]V[Bip]Y[Orn][dL][Dab][Cha]V[Orn]C[Dab][Aun]-OH; thioether N-14) | 19.1 nM
Cc1cccc(C[C@@H]2NC(=O)[C@H](CC(=O)O)NC(=O)[C@H](Cc3ccc(OCC(=O)O)cc3)NC(=O)[C@H](CC(N)=O)NC(=O)CSC[C@@H](C(=O)N[C@@H](CCN)C(=O)NCCOCCOCC(=O)NCCCCCCCCCCC(=O)O)NC(=O)[C@H](CCCN)NC(=O)[C@H](C(C)C)NC(=O)[C@H](CC3CCCCC3)NC(=O)[C@H](CCN)NC(=O)[C@@H](CC(C)C)NC(=O)[C@H](CCCN)NC(=O)[C@H](Cc3ccc(O)cc3)NC(=O)[C@H](Cc3ccc(-c4ccccc4)cc3)NC(=O)[C@H](C(C)C)NC2=O)c1 [Compound 2697] ({CH2CO}-NY(Carboxymethyl)D[Phe(3-Me)]V[Bip]Y[Orn][dL][Dab][Cha]V[Orn]C[Dab][AEEA][Aun]-OH; thioether N-14) | 4.9 nM
Cc1cccc(C[C@@H]2NC(=O)[C@H](CC(=O)O)NC(=O)[C@H](Cc3ccc(OCC(=O)O)cc3)NC(=O)[C@H](CC(N)=O)NC(=O)CSC[C@@H](C(=O)N[C@@H](CCN)C(=O)NCCCCCCCCCCC(=O)O)NC(=O)[C@H](CCCN)NC(=O)[C@H](C(C)C)NC(=O)[C@H](CC3CCCCC3)NC(=O)[C@H](CCN)NC(=O)[C@@H](CC(C)C)NC(=O)[C@H](CCCN)NC(=O)[C@H](Cc3ccc(O)cc3)NC(=O)[C@H](Cc3ccc(-c4ccccc4)cc3)NC(=O)[C@H](C(C)C)NC2=O)c1 [Compound 2698] ({CH2CO}-NY(Carboxymethyl)D[Phe(3-Me)]V[Bip]Y[Orn][dL][Dab][Cha]V[Orn]C[Dab][Aun]-OH; thioether N-14) | 11 nM
Cc1cccc(C[C@@H]2NC(=O)[C@H](CC(=O)O)NC(=O)[C@H](Cc3cccnc3)NC(=O)[C@H](CC(N)=O)NC(=O)CSC[C@@H](C(=O)N[C@@H](CCN)C(=O)NCCCCCCCCCCC(=O)O)NC(=O)[C@H](CCCN)NC(=O)[C@H](C(C)C)NC(=O)[C@H](CC3CCCCC3)NC(=O)[C@H](CCN)NC(=O)[C@@H](CC(C)C)NC(=O)[C@H](CCCN)NC(=O)[C@H](Cc3ccc(O)cc3)NC(=O)[C@H](Cc3ccc(-c4ccccc4)cc3)NC(=O)[C@H](C(C)C)NC2=O)c1 [Compound 2700] ({CH2CO}-N[3Pal]D[Phe(3-Me)]V[Bip]Y[Orn][dL][Dab][Cha]V[Orn]C[Dab][Aun]-OH; thioether N-14) | 17.9 nM
CC(C)C[C@H]1NC(=O)[C@H](CCCN)NC(=O)[C@H](Cc2ccc(O)cc2)NC(=O)[C@H](Cc2ccc(-c3ccccc3)cc2)NC(=O)[C@H](C(C)C)NC(=O)[C@H](Cc2c[nH]c3ccccc23)NC(=O)[C@H](CC(=O)O)NC(=O)[C@H](Cc2ccc(OCC(=O)O)cc2)NC(=O)[C@H](Cc2ccncc2)NC(=O)CSC[C@@H](C(=O)N[C@@H](CCN)C(=O)NCCOCCOCC(=O)NCCCCCCCCCCC(=O)O)NC(=O)[C@H](CCCN)NC(=O)[C@H](C(C)C)NC(=O)[C@H](CC2CCCCC2)NC(=O)[C@H](CCN)NC1=O [Compound 2701] ({CH2CO}-[4Pal]Y(Carboxymethyl)DWV[Bip]Y[Orn][dL][Dab][Cha]V[Orn]C[Dab][AEEA][Aun]-OH; thioether N-14) | 6.7 nM
CC(C)C[C@H]1NC(=O)[C@H](CCCN)NC(=O)[C@H](Cc2ccc(O)cc2)NC(=O)[C@H](Cc2ccc(-c3ccccc3)cc2)NC(=O)[C@H](C(C)C)NC(=O)[C@H](Cc2c[nH]c3ccccc23)NC(=O)[C@H](CC(=O)O)NC(=O)[C@H](Cc2ccc(OCC(=O)O)cc2)NC(=O)[C@H](Cc2ccncc2)NC(=O)CSC[C@@H](C(=O)N[C@@H](CCN)C(=O)NCCCCCCCCCCC(=O)O)NC(=O)[C@H](CCCN)NC(=O)[C@H](C(C)C)NC(=O)[C@H](CC2CCCCC2)NC(=O)[C@H](CCN)NC1=O [Compound 2702] ({CH2CO}-[4Pal]Y(Carboxymethyl)DWV[Bip]Y[Orn][dL][Dab][Cha]V[Orn]C[Dab][Aun]-OH; thioether N-14) | 25.7 nM
CC(C)C[C@H]1NC(=O)[C@H](CCCN)NC(=O)[C@H](Cc2ccc(O)cc2)NC(=O)[C@H](Cc2ccc(-c3ccccc3)cc2)NC(=O)[C@H](C(C)C)NC(=O)[C@H](Cc2c[nH]c3ccccc23)NC(=O)[C@H](CC(=O)O)NC(=O)[C@H](Cc2ccc(O)cc2)NC(=O)[C@H](Cc2ccncc2)NC(=O)CSC[C@@H](C(=O)N[C@@H](CCN)C(=O)NCCOCCOCC(=O)NCCCCCCCCCCC(=O)O)NC(=O)[C@H](CCCN)NC(=O)[C@H](C(C)C)NC(=O)[C@H](CC2CCCCC2)NC(=O)[C@H](CCN)NC1=O [Compound 2703] ({CH2CO}-[4Pal]YDWV[Bip]Y[Orn][dL][Dab][Cha]V[Orn]C[Dab][AEEA][Aun]-OH; thioether N-14) | 19.3 nM
CC(C)C[C@H]1NC(=O)[C@H](CCCN)NC(=O)[C@H](Cc2ccc(O)cc2)NC(=O)[C@H](Cc2ccc(-c3ccccc3)cc2)NC(=O)[C@H](C(C)C)NC(=O)[C@H](Cc2c[nH]c3ccccc23)NC(=O)[C@H](CC(=O)O)NC(=O)[C@H](Cc2ccc(O)cc2)NC(=O)[C@H](Cc2ccncc2)NC(=O)CSC[C@@H](C(=O)N[C@@H](CCN)C(=O)NCCCCCCCCCCC(=O)O)NC(=O)[C@H](CCCN)NC(=O)[C@H](C(C)C)NC(=O)[C@H](CC2CCCCC2)NC(=O)[C@H](CCN)NC1=O [Compound 2704] ({CH2CO}-[4Pal]YDWV[Bip]Y[Orn][dL][Dab][Cha]V[Orn]C[Dab][Aun]-OH; thioether N-14) | 26.7 nM
